In ChEMBL document CHEMBL5678818, “Discovery of potent SOS1 inhibitors that block RAS activation via disruption of the RAS-SOS1 interaction” (Proc Natl Acad Sci U S A, 2019):

Key:
[1] = target: Fibroblast growth factor receptor 3 (Homo sapiens) (UniProt P22607); experiment: Inhibition of FGFR3 (unknown origin) assessed as residual activity at 100 nM by KINOMEscan analysis relative to control
[2] = target: T1, Interleukin-1 receptor-associated kinase 3 (Homo sapiens) (UniProt Q9Y616); experiment: Inhibition of IRAK3 (unknown origin) assessed as residual activity at 100 nM by KINOMEscan analysis relative to control
T1 sequence (whole entry): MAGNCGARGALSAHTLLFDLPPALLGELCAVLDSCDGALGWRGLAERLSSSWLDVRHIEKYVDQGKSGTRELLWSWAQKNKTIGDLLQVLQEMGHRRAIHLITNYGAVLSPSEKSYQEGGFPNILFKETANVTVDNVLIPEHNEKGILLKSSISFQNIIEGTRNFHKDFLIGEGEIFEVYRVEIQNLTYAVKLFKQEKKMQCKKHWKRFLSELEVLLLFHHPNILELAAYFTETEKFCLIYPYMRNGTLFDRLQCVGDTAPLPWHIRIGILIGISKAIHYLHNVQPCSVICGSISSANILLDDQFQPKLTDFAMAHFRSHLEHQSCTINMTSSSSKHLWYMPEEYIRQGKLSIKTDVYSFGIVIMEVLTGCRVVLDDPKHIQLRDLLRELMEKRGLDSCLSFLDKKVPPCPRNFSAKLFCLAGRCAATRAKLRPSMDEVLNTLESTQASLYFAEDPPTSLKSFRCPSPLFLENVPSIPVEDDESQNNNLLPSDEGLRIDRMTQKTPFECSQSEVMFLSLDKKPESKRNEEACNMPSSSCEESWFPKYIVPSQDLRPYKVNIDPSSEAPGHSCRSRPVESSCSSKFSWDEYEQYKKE

[3] = target: Tyrosine-protein kinase JAK1 (Homo sapiens) (UniProt P23458); experiment: Inhibition of JAK1 JH2 pseudokinase domain (unknown origin) assessed as residual activity at 100 nM by KINOMEscan analysis relative to control
[4] = target: T2, Serine/threonine-protein kinase Nek3 (Homo sapiens) (UniProt P51956); experiment: Inhibition of NEK3 (unknown origin) assessed as residual activity at 100 nM by KINOMEscan analysis relative to control
T2 sequence (whole entry): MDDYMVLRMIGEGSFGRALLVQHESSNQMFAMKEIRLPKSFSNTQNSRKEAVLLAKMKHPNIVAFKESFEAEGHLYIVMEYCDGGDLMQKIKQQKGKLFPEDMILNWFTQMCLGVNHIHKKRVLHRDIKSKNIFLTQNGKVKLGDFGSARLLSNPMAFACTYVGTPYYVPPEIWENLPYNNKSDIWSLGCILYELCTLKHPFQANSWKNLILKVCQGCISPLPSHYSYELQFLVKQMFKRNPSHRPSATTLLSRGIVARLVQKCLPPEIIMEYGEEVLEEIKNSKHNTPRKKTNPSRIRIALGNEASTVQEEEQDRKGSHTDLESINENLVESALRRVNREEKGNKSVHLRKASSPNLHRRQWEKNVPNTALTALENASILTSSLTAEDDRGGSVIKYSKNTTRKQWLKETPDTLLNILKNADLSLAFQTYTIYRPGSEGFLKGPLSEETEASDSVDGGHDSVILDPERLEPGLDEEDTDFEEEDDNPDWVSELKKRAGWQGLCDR

[5] = tested on: Phosphatidylinositol 4,5-bisphosphate 3-kinase catalytic subunit alpha isoform (Homo sapiens), P42336 [H1047Y]; experiment: Inhibition of PIK3CA H1047Y mutant (unknown origin) assessed as residual activity at 100 nM by KINOMEscan analysis relative to control
[6] = target: T3, cGMP-dependent protein kinase 2 (Homo sapiens) (UniProt Q13237); experiment: Inhibition of PRKG2 (unknown origin) assessed as residual activity at 100 nM by KINOMEscan analysis relative to control
T3 sequence (whole entry): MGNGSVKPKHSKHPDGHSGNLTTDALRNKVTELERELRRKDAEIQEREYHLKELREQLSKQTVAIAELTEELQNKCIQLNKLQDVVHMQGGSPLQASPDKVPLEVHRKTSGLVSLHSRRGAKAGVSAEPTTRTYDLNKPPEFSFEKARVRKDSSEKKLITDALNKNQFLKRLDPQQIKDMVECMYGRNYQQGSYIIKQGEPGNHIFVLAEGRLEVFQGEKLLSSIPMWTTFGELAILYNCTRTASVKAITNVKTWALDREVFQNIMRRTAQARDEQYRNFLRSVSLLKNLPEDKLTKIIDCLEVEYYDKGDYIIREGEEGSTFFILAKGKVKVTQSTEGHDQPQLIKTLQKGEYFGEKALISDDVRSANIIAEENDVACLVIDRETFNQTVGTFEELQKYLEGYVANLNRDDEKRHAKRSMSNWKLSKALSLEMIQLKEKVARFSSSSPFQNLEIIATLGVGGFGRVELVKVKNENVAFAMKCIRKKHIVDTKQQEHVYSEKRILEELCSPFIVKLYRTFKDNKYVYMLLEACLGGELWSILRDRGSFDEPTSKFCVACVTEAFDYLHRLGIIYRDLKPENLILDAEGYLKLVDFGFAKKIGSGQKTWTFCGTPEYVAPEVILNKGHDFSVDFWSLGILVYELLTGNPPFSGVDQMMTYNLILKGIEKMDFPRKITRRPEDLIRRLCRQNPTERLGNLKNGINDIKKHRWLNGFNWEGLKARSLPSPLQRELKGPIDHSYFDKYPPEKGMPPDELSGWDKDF

Chain of Fibroblast growth factor receptor 3 (Homo sapiens) (P22607 23-806 limits assumed): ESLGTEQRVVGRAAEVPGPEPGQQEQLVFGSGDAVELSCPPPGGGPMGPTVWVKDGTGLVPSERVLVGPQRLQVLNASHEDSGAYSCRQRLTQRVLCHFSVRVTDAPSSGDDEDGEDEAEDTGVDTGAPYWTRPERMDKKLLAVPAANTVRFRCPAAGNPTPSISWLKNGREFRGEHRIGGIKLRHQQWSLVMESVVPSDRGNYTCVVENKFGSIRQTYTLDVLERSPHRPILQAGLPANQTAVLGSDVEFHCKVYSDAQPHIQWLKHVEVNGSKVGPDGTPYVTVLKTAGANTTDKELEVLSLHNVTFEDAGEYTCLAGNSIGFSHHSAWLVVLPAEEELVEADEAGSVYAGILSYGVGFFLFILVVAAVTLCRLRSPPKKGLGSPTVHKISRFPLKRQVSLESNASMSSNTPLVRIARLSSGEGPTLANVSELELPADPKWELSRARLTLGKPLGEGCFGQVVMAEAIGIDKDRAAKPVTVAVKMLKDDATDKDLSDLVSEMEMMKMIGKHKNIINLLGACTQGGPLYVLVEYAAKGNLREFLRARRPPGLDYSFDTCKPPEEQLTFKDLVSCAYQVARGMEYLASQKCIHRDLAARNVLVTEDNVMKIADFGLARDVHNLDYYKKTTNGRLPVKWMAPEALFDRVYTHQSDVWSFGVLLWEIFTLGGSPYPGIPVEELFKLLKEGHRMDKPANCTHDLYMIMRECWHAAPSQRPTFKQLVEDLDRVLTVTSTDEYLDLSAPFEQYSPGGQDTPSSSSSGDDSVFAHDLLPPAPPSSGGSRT
Chain of Tyrosine-protein kinase JAK1 (Homo sapiens) (P23458 whole entry, the tested form may be a part): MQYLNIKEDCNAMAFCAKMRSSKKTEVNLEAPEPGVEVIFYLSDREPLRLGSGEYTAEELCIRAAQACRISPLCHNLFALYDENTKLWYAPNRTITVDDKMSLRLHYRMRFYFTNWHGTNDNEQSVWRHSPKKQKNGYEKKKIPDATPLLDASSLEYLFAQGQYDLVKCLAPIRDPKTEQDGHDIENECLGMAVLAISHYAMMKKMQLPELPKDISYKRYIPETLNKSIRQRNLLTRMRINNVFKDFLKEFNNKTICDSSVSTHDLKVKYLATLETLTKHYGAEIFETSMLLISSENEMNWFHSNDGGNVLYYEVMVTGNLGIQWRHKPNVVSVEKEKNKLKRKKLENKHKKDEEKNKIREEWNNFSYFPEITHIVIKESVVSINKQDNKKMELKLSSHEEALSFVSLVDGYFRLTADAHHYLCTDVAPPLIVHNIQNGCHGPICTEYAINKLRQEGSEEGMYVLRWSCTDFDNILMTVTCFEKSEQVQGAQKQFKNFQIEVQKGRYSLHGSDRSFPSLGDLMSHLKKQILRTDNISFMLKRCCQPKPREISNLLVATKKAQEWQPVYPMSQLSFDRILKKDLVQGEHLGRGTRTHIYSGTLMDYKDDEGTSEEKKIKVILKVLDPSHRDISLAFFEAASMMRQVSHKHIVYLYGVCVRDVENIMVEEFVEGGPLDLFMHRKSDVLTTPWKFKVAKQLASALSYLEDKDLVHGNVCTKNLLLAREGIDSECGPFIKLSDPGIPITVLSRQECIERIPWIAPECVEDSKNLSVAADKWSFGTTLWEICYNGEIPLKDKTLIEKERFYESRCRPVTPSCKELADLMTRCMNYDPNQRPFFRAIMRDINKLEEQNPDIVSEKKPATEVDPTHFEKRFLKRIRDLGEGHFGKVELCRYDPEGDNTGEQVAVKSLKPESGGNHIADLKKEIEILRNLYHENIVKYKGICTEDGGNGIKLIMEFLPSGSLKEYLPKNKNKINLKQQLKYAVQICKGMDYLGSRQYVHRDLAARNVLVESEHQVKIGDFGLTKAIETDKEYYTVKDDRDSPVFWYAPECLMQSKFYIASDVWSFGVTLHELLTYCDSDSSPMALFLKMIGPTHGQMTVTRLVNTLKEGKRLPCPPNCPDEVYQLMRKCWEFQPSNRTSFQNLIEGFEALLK
Chain of Phosphatidylinositol 4,5-bisphosphate 3-kinase catalytic subunit alpha isoform (Homo sapiens), P42336 [H1047Y] (P42336 whole entry H1047Y, canonical isoform): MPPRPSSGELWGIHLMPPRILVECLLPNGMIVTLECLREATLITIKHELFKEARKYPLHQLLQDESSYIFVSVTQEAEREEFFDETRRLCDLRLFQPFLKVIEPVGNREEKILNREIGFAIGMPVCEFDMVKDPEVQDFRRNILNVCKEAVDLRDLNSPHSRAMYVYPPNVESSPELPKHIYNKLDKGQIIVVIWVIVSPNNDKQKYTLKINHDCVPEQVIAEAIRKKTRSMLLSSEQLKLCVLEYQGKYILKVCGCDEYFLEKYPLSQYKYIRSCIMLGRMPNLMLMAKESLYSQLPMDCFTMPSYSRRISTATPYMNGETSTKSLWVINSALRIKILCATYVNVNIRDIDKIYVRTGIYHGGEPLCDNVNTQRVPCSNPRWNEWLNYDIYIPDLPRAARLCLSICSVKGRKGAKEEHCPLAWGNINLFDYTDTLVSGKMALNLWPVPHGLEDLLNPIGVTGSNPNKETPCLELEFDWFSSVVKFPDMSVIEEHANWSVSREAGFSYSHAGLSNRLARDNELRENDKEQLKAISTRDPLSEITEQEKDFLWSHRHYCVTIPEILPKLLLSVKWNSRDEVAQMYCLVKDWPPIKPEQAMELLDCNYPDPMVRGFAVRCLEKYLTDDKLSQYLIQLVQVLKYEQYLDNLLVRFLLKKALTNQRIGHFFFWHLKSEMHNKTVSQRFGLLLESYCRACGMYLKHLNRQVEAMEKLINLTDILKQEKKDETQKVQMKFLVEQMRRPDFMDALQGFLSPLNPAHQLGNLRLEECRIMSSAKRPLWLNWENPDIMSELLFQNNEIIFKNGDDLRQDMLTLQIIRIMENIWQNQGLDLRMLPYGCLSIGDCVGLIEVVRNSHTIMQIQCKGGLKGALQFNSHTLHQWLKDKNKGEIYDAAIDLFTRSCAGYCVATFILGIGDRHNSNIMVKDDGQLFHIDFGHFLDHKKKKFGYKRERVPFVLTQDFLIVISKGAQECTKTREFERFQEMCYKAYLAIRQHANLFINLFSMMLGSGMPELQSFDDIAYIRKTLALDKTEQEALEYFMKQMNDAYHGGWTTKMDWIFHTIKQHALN

## COc1cc2ncnc(N[C@H](C)c3cccc4ccccc34)c2cc1OC
[1]
  Activity: 72%
[2]
  Activity: 100%
[3]
  Activity: 100%
[4]
  Activity: 97%
[5]
  Activity: 73%
[6]
  Activity: 70%
